From patent US9012411B2, “Formulations from derivatives of curcumin, paclitaxel, and aspirin” (Organomed Corporation, priority 2009, dated 2015)
Counter-ions that a name gives are not always drawn. Marks after values point to notes of the source that are not given here. Values belong to the compound of their own block, whether it stands above or below them.

Tests used:
[1] = system: normal (non-cancer) cell line WI-38; test: Cellular inhibition, Alamar Blue; format: cell-based
Protocol: (§1) Assays were performed with 3 cancer cell lines: breast (SKBR3), pancreatic (Panc1), prostate (PC-3) and 1 normal (nor-cancer) cell line (WI-38). Compounds were delivered to the cells after dissolving in DMSO. Five dilutions per compound were tested on a total of 4 cell lines in 96 well plates. Cellular inhibition was measured using Alamar Blue. After addition of compound a 24 hour and 48 hour time point using fluorescent plate reader was taken. Data from plate reader was analyzed in the following way: % inhibition bar graphs, % inhibition line graphs and IC50 growth inhibition values. In Tables 7-14, IC50 units are Molar (M).

[2] = system: prostate (PC-3) cancer cell line; test: Cellular inhibition, Alamar Blue; format: cell-based; conditions: for inhibition of proliferation: PC-3, 48 hours
Protocol: as §1

[3] = system: pancreatic (Panc1) cancer cell line; test: Cellular inhibition, Alamar Blue; format: cell-based; conditions: for inhibition of proliferation: Panc-1, 48 hours
Protocol: as §1

[4] = system: breast (SKBR3) cancer cell line; test: Cellular inhibition, Alamar Blue; format: cell-based; conditions: for inhibition of proliferation: skbr3, 48 hours
Protocol: as §1

[5] = In vitro enzyme hydrolysis in human serum (HPLC); format: in vitro ADME; conditions: 25% human serum; for Average rate, test compound: decomposition of test compound; for Test compound Rate: rate of decomposition of test compound; for Salicyclic acid Rate: rate of release of salicylic acid; for Test compound Concentration: remaining test compound; for Salicyclic acid Concentration: salicylic acid released from test compound, 0.2 mg/mL
Protocol: A 25% solution of human serum in 0.01M phosphate buffer was taken and the test compound (glucose aspirin or aspirin) were added to get a concentration of 0.2 mg/mL. The hydrolysis for the rate of release of salicylic acid and the rate of decomposition of the test compound were measured by HPLC.

[6] = system: carrageenan induced rat paw edema; test: Carrageenan induced rat paw edema; format: in vivo, albino rats; conditions: for Percent inhibition of paw edema (Std. Error): Example 9, 100 mg/kg oral with food
Protocol: Animals were kept under 13 hour day night cycle. Animals were given standard diet and water was provided ad, libitum. All animals were acclimatized for at least one week before the experimental session. Animals were divided in to five groups. Each group consisted of 8 animals.
Pedal inflammation in albino rats of either sex was produced according to the method of Winter et al., (Proc Soc Exp Biol Med 1963; 111: 544-7). An injection was made with 0.1 ml of 1% carrageenan (SIGMA) suspension into the right hind foot of each rat in the plantar region. […] Control group 5 was given 0.5 ml saline and groups 1 and 2 received aspirin. Increase in linear paw circumference was measured by tying a piece of cotton thread round the rat's paw, and noting the point of intersection of two ends on a meter scale. This was taken as an index of increase in paw volume, which is a measure of oedema (Bamgbose S O A, Noamesi B K. Planta Med 1981; 42: 392-6). Measurements were taken immediately before and at 1, 2 and 3 hours after carrageenan injection. The inhibitory activity was calculated according to the following formula (Awe S O, Olajide O A, Adeboye J O, Makinde J M. Indian J Pharmacol 1998; 30: 38-42):
[formula] Ct-Linear paw circumference 3 hours after carrageenan injection and Co-Linear paw circumference before carrageenan injection.
Albino rats obtained from central animal house of institute were used in the study. The animals were kept under 12 hour day night cycle. Animals were given standard diet and water was provided ad libitum. All animals were acclimatized for at least one week before the experimental session. Animals were divided into twelve groups in the carrageenan induced paw edema and tail flick method. Each group consisted of 4 animal each.
Animals were divided into eight groups in the carrageenan induced paw edema and tail flick method. Each group consisted of 6 animal each. The groups received various chemicals as given in Table 16 by oral administration with food. The following methods were used to evaluate the activity of the compositions:
Pedal inflammation in albino rats of either sex was produced according to the method of Winter et al. (Proc. Soc. Exp. Biol. Med., 1963, 111: 544-547). An injection was made with 0.1 ml of 1% carrageenan (SIGMA) suspension into the right hind foot of each rat in the plantar region. The various chemicals were given 30 minutes before carrageenan injection. Increase in linear paw circumference was measured by tying a piece of cotton thread round the rat's paw, and noting the point of intersection of two ends on a meter scale. This was taken as an index of increase in paw volume, which is a measure of edema (Bamgbose, S. O. A. & Noamesi, B. K., Planta. Med., 1981, 42: 392-396). Measurements were taken immediately before and at 1, 2 and 3 hours after carrageenan injection. The inhibitory activity was calculated according to the following formula (Awe S O, Olajide O A, Adeboye J O, Makinde J M. Indian J. Pharmacol., 1998; 30: 38-42):
Animals were divided into six groups in the carrageenan induced paw edema and tail flick method. Each group consisted of 8 animals each. Carrageenan-induced rat paw edema and Tail flick test were performed as discussed above in Example 8. Data were analyzed using analysis of variance (ANOVA) with Posthoc Bonferroni multi-comparisons. P<0.05 was considered as statistically significant.

[7] = system: tail flick latency in rats; test: Tail flick test (analgesic activity); format: in vivo, albino rats; conditions: for Tail flick latency / analgesic activity (in words): Example 5, 100 and 200 mg/kg i.p., rats
Protocol: Rats were screened for tail flip reaction with a cut-off time of 5 seconds. For each animal, the tail flick latency was obtained thrice before drug administration and mean was used as pre-drug latency. The tail flick latencies were measured at 0, 0.5, 1, 1.5, 2 and 3 h after administration chemicals.
Albino rats obtained from central animal house of institute were used in the study. The animals were kept under 12 hour day night cycle. Animals were given standard diet and water was provided ad libitum. All animals were acclimatized for at least one week before the experimental session. […] Each group consisted of 4 animal each.
Rats were screened for tail flip reaction with a cut-off time of 5 seconds. For each animal, the tail flick latency was obtained thrice before drug administration and mean was used as pre-drug latency. The tail flick latencies were measured at 0, 0.5, 1, 1.5, 2 and 3 h after administration of chemicals.
Each group consisted of 8 animals each. […] Data were analyzed using analysis of variance (ANOVA) with Posthoc Bonferroni multi-comparisons. P<0.05 was considered as statistically significant.

[8] = system: cancer cell lines SKBR3, Panc1, PC-3; test: Cellular inhibition, Alamar Blue, cancer cell lines taken together; format: cell-based; conditions: 24 hours
Protocol: as §1

[9] = system: PC3 cells; test: GI50 (50% inhibition of cell growth), MTT assay, 72 hours; format: cell-based; conditions: Homo sapiens, PC-3, 72 h, PC3, 72 hours, 1 ng/ml to 10 ug/ml (Example 8)
Protocol: (§2) The cells were plated onto a 96 well plate and treated with different concentrations of the compounds from 1 ng/ml to 10 ug/ml for 72 hours followed by MTT assay.
(§3) The cells were plated onto a 96 well plate and treated with different concentrations of the compounds from 0.04 ng/ml to 400 ng/ml for 72 hours followed by MTT assay.

[10] = system: PANC-1 cells; test: as above; format: cell-based; conditions: Homo sapiens, PANC-1, 72 h, 1 ng/ml to 10 ug/ml (Example 8)
Protocol: as §2, §3

[11] = water at 25° C.; Merck Index; cited from earlier work
[12] = Example 6, 50-200 mg/kg, compared with control groups and aspirin

SMILES: CC(=O)Oc1ccccc1C(=O)O[C@@H]([C@H](O)[C@H](O)CO)[C@@H](O)C=O [PMN II-168, 3-(2′-Acetyloxybenzoyl)-D-glucose]
IC50 ([1]; WI38, 24 hours): 376 µM
IC50 ([1]; WI38, 48 hours): 310 µM
IC50 ([2]; PC3, 24 hours): 83.2 µM
IC50 ([2]; PC3, 48 hours): 81.4 µM
inhibition of proliferation ([2]; 150 uM): ~65%
inhibition of proliferation ([2]; 300 uM): ~85%
IC50 ([3]; PANC1, 24 hours): 399 µM
IC50 ([3]; PANC1, 48 hours): 90.5 µM
inhibition of proliferation ([3]; 150 uM): ~60%
inhibition of proliferation ([3]; 300 uM): ~70%
IC50 ([4]; SKBR3, 24 hours): 201 µM
IC50 ([4]; SKBR3, 48 hours): 87.8 µM
inhibition of proliferation ([4]; 150 uM): ~60%
inhibition of proliferation ([4]; 300 uM): approximately 90%
Hydrolysis rate in human serum (in words) ([5]; compared with aspirin): much slower rate than aspirin
Average rate, test compound ([5]; 0-180 min): -3.3e-07 M/min
Test compound Rate ([5]; 0 min): 0 M/min
Test compound Rate ([5]; 30 min): 1.91e-07 M/min
Test compound Rate ([5]; 60 min): -2.24e-07 M/min
Test compound Rate ([5]; 90 min): -3.62e-07 M/min
Test compound Rate ([5]; 120 min): -2.96e-07 M/min
Test compound Rate ([5]; 180 min): -4.38e-07 M/min
Salicyclic acid Rate ([5]; 0 min): 0 M/min
Salicyclic acid Rate ([5]; 30 min): 0 M/min
Salicyclic acid Rate ([5]; 120 min): 9.11e-07 M/min
Salicyclic acid Rate ([5]; 180 min): 1.97e-07 M/min
Average rate, salicyclic acid ([5]; release of salicylic acid, 0-180 min): 9.08e-08 M/min
Test compound Concentration ([5]; 0 min): 198 µM
Test compound Concentration ([5]; 30 min): 203 µM
Test compound Concentration ([5]; 60 min): 184 µM
Test compound Concentration ([5]; 90 min): 165 µM
Test compound Concentration ([5]; 120 min): 162 µM
Test compound Concentration ([5]; 180 min): 119 µM
Salicyclic acid Concentration ([5]; 0 min): 0 µM
Salicyclic acid Concentration ([5]; 30 min): 0 µM
Salicyclic acid Concentration ([5]; 60 min): 2.7 µM
Salicyclic acid Concentration ([5]; 90 min): 2.75 µM
Salicyclic acid Concentration ([5]; 120 min): 10.9 µM
Salicyclic acid Concentration ([5]; 180 min): 35.4 µM
Suppression of carrageenan-induced paw edema (in words) ([6]; Example 5, 100 and 200 mg/kg i.p., rats): significantly suppressed carrageenan-induced paw edema
Tail flick latency / analgesic activity (in words) [7]: significant analgesic activity
inhibition of cancer cell growth ([8]; 300 uM): up to 60%
inhibition of cancer cell growth ([8]; four lower concentrations): 20%

GI50 [9]: 3.85 µg/mL
GI50 [10]: 7.18 µg/mL
SMILES: Nc1ccn([C@@H]2O[C@H](CO)[C@@H](O)C2(F)F)c(=O)n1 [NJ-92-1, Gemcitabine.HCl]

IC50 ([2]; PC3, 24 hours): 771 µM
IC50 ([2]; PC3, 48 hours): 782 µM
IC50 ([3]; Homo sapiens, PANC-1, PANC1, 24 hours): 975 µM
IC50 ([3]; Homo sapiens, PANC-1, PANC1, 48 hours): 745 µM
IC50 ([4]; Homo sapiens, SK-BR-3, SKBR3, 24 hours): 731 µM
IC50 ([4]; Homo sapiens, SK-BR-3, SKBR3, 48 hours): 693 µM
Average rate, test compound ([5]; 0-180 min): -1.57e-06 M/min
Test compound Rate ([5]; 0 min): 0 M/min
Test compound Rate ([5]; 30 min): -1.4e-06 M/min
Test compound Rate ([5]; 60 min): -9.81e-07 M/min
Test compound Rate ([5]; 90 min): -2.32e-06 M/min
Test compound Rate ([5]; 120 min): -1.56e-06 M/min
Test compound Rate ([5]; 180 min): -1.58e-06 M/min
Test compound Concentration ([5]; 0 min): 457 µM
Test compound Concentration ([5]; 30 min): 415 µM
Test compound Concentration ([5]; 60 min): 399 µM
Test compound Concentration ([5]; 90 min): 248 µM
Test compound Concentration ([5]; 120 min): 270 µM
Test compound Concentration ([5]; 180 min): 174 µM
SMILES: CC(=O)Oc1ccccc1C(=O)O [Aspirin, acetylsalicylic acid]
IC50 ([1]; Homo sapiens, WI-38, WI38, 24 hours): 619 µM
IC50 ([1]; Homo sapiens, WI-38, WI38, 48 hours): 501 µM
Aspirin solubility in water [11]: 0.33 g/100 mL
Paw circumference ([6]; Example 6, 100 mg/kg, 0 h): 3.125 ± 0.13 mm
Paw circumference ([6]; Example 6, 100 mg/kg, 1 h): 3.475 ± 0.15 mm
Paw circumference ([6]; Example 6, 100 mg/kg, 2 h): 3.6 ± 0.14 mm
Paw circumference ([6]; Example 6, 100 mg/kg, 3 h): 3.475 ± 0.10 mm
Paw circumference ([6]; Example 6, 200 mg/kg, 0 h): 3.3 ± 0.18 mm
Paw circumference ([6]; Example 6, 200 mg/kg, 1 h): 3.425 ± 0.21 mm
Paw circumference ([6]; Example 6, 200 mg/kg, 2 h): 3.575 ± 0.13 mm
Paw circumference ([6]; Example 6, 200 mg/kg, 3 h): 3.55 ± 0.10 mm
% inhibition of paw edema (in words) [6, 12]: significantly inhibited the development of the edema
Paw circumference ([6]; Example 8 (in vivo), 100 mg/kg oral with food, 0 h): 3.4 mm
Paw circumference ([6]; Example 8 (in vivo), 100 mg/kg oral with food, 1 h): 3.82 mm
Paw circumference ([6]; Example 8 (in vivo), 100 mg/kg oral with food, 2 h): 3.58 mm
Paw circumference ([6]; Example 8 (in vivo), 100 mg/kg oral with food, 3 h): 3.67 mm
Percent inhibition of paw edema (Std. Error) ([6]; 1 hr): 55.44%
Percent inhibition of paw edema (Std. Error) ([6]; 2 hr): 79.16%
Percent inhibition of paw edema (Std. Error) ([6]; 3 hr): 75.29%
Tail flick latency / analgesic activity (in words) [7]: significant increase in the tail flick latency
Tail flick latency time ([7]; Example 6, 100 mg/kg, 0 min): 1.64 ± 0.27 s
Tail flick latency time ([7]; Example 6, 100 mg/kg, 30 min): 3.28 ± 0.26 s
Tail flick latency time ([7]; Example 6, 100 mg/kg, 60 min): 3.28 ± 0.57 s
Tail flick latency time ([7]; Example 6, 100 mg/kg, 90 min): 2.88 ± 0.26 s
Tail flick latency time ([7]; Example 6, 100 mg/kg, 120 min): 2.73 ± 0.48 s
Tail flick latency time ([7]; Example 6, 100 mg/kg, 180 min): 2.05 ± 0.76 s
Tail flick latency time ([7]; Example 6, 200 mg/kg, 0 min): 2.32 ± 0.46 s
Tail flick latency time ([7]; Example 6, 200 mg/kg, 30 min): 3.46 ± 0.77 s
Tail flick latency time ([7]; Example 6, 200 mg/kg, 60 min): 3.46 ± 0.17 s
Tail flick latency time ([7]; Example 6, 200 mg/kg, 90 min): 3.03 ± 0.42 s
Tail flick latency time ([7]; Example 6, 200 mg/kg, 120 min): 3.12 ± 0.30 s
% MPE / analgesic activity in tail flick test (in words) [7, 12]: significantly more
Tail flick latency time ([7]; Example 8 (in vivo), 100 mg/kg oral with food, 0 min): 2.37 s
Tail flick latency time ([7]; Example 8 (in vivo), 100 mg/kg oral with food, 30 min): 2.75* seconds
Tail flick latency time ([7]; Example 8 (in vivo), 100 mg/kg oral with food, 60 min): 2.68 s
Tail flick latency time ([7]; Example 8 (in vivo), 100 mg/kg oral with food, 90 min): 2.57 s
Tail flick latency time ([7]; Example 8 (in vivo), 100 mg/kg oral with food, 120 min): 2.23 s
Tail flick latency time ([7]; Example 8 (in vivo), 100 mg/kg oral with food, 180 min): 2.37 s
inhibition of cancer cell growth (in words) [8]: did not seem to inhibit growth by any significant means
